According to patent US6974837B2, “Compositions comprising sibutramine metabolites in combination with phosphodiesterase inhibitors” (Sepracor Inc., priority 1999, dated 2005):
Like-named read-outs stand apart in the source and are kept apart here.

Tests used:
[1] = target: human recombinant norepinephrine (NE) uptake site (Homo sapiens, UniProt P23975); assay: Binding at the norepinephrine (NE) uptake site
[2] = target: nonselective muscarinic receptor; assay: Binding at the nonselective muscarinic receptor; set-up: species or system rat; settings: for IC50: rat cerebral cortex
[3] = target: serotonin (5-HT) uptake site (Rattus norvegicus, UniProt P31652)
[4] = human recombinant NE uptake site, read-out: Binding IC50 NE Uptake

Chain of human recombinant norepinephrine (NE) uptake site (P23975 whole entry): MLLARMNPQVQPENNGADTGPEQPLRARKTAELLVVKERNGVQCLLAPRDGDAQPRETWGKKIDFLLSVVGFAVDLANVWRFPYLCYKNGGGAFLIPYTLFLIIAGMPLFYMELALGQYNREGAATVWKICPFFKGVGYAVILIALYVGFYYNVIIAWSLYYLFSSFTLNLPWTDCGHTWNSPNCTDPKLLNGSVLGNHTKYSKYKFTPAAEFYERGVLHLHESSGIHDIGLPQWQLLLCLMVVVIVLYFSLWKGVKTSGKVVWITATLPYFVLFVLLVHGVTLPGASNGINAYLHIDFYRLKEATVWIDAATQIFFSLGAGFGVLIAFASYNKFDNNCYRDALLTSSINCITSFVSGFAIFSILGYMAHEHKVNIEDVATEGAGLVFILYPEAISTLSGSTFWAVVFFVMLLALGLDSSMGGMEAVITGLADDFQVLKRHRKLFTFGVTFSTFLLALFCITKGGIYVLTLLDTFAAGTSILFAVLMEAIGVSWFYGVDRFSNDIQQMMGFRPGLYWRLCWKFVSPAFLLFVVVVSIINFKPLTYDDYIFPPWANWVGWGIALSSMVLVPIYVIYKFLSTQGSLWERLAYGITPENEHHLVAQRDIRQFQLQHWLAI
Chain of serotonin (5-HT) uptake site (P31652 whole entry): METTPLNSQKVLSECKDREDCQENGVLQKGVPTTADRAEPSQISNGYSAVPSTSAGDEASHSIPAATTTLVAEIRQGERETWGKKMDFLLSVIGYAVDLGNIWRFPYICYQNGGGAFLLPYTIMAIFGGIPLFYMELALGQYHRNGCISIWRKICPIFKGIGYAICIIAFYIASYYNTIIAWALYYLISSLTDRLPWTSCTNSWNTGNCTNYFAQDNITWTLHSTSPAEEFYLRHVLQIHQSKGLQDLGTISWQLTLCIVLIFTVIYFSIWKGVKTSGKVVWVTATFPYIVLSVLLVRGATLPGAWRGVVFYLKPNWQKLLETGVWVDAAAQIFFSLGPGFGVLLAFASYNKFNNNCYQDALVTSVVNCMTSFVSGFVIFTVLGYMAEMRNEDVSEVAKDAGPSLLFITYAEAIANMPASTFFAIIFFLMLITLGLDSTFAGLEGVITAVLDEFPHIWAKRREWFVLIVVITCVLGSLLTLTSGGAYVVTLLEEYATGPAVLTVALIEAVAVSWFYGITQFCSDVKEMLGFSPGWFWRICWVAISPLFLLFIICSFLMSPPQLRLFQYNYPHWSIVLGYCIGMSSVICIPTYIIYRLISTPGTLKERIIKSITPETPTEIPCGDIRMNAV

Row | Compound | IC50 [1] | IC50 [2] | 5-HT uptake site binding / inhibition (in words) [3] | NE uptake site binding / inhibition (in words) [1] | IC50 [1, 4] | affinity / activity at muscarinic site (in words) [2]
1 | CNC(CC(C)C)C1(c2ccc(Cl)cc2)CCC1 (racemic) [(R/S)-desMe, 1-(4-chlorophenyl)-N-methyl-2-(2-methylpropyl)-cyclobutanamethamine] | 10 nM | 1170 nM | – | – | – | –
2 | CN[C@H](CC(C)C)C1(c2ccc(Cl)cc2)CCC1 [(R)-desMe] | – | – | potent inhibitors | potent inhibitors | 4 nM | negligible activity
3 | CC(C)C[C@@H](N)C1(c2ccc(Cl)cc2)CCC1 [(R)-didesMe] | – | – | potent inhibitors | potent inhibitors | 13 nM | negligible activity
4 | CN[C@@H](CC(C)C)C1(c2ccc(Cl)cc2)CCC1 [(S)-desMe] | 870 nM | 654 nM | – | – | – | –
5 | CN1[C@@H]2CC[C@H]1C[C@@H](OC(=O)C(CO)c1ccccc1)C2 (stereo partly shown) [Atropine, reference compound] | – | 0.31 nM | – | – | – | –
